# Test results published in ChEMBL document CHEMBL5518207, “Structure Guided Discovery of Novel Pan Metallo-β-Lactamase Inhibitors with Improved Gram-Negative Bacterial Cell Penetration” (J Med Chem, 2024).
# Key:
# [1] = system: Pseudomonas aeruginosa; assay: Potentiation of imipenem induced antibacterial activity against isogenic efflux deleted mutant Pseudomonas aeruginosa MB9799 harbouring IMP incubated for 18 to 22 hrs imipenem and beta lactamase inhibitor by spectrophotometer based analysis; format: functional; details: time 18-22 hrs
# [2] = Inhibition of GST tagged IMP-1 (unknown origin) expressed in Escherichia coli BL21 Star (DE3) competent cells using CCF2-FA as substrate incubated for 2 hrs by fluorescence based analysis
# [3] = MRT in Beagle dog at 1 mg/kg, iv measured after 24 hrs by HPLC-MS analysis; format: ADME, organism-based, Canis lupus familiaris; details: in vivo
# [4] = system: Pseudomonas aeruginosa; assay: Potentiation of imipenem induced antibacterial activity against isogenic efflux wild type Pseudomonas aeruginosa MB9798 harbouring IMP incubated for 18 to 22 hrs imipenem and beta lactamase inhibitor by spectrophotometer based analysis; format: functional; details: time 18-22 hrs
# [5] = system: Klebsiella pneumoniae; assay: Potentiation of imipenem induced antibacterial activity against Klebsiella pneumoniae IHMA599644 harbouring VIM-1 incubated for 18 to 22 hrs imipenem by spectrophotometer based analysis; format: functional; details: time 18-22 hrs
# [6] = Toxicity in Beagle dog assessed as increase in histamine level in plasma at 1 mg/kg, iv measured upto 24 hrs by HPLC-MS analysis; format: organism-based, Canis lupus familiaris; details: in vivo
# [7] = Inhibition of GST tagged VIM-2 (unknown origin) expressed in Escherichia coli BL21 Star (DE3) competent cells using CCF2-FA as substrate incubated for 2 hrs by fluorescence based analysis
# [8] = target: T1, Cytochrome P450 2C8 (Homo sapiens, UniProt P10632); assay: Inhibition of CYP2C8 (unknown origin); format: ADME
# T1 sequence (P10632 whole entry): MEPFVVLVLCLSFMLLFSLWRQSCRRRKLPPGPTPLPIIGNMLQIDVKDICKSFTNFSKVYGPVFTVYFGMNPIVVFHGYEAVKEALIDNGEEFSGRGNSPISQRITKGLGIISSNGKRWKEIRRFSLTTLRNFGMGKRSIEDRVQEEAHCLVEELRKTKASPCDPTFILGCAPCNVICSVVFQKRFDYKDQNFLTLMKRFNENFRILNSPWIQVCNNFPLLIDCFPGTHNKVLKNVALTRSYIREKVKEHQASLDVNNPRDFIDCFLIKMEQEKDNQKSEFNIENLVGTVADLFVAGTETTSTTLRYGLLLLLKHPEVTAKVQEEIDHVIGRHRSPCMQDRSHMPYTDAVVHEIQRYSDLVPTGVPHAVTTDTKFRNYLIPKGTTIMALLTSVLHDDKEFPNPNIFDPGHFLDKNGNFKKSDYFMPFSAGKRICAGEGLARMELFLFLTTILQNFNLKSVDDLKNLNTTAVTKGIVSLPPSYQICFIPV
# [9] = AUC in rat at 1 mg/kg, iv measured after 24 hrs by HPLC-MS analysis; format: ADME, organism-based; details: in vivo
# [10] = MRT in rat at 1 mg/kg, iv measured after 24 hrs by HPLC-MS analysis; format: ADME, organism-based; details: in vivo
# [11] = Clearance in Beagle dog at 1 mg/kg, iv measured after 24 hrs by HPLC-MS analysis; format: ADME, organism-based, Canis lupus familiaris; details: in vivo
# [12] = system: Pseudomonas aeruginosa; assay: Efflux ratio of MITC95 for potentiation of imipenem induced antibacterial activity against isogenic efflux wild type Pseudomonas aeruginosa MB9798 harbouring IMP to MITC95 for potentiation of imipenem induced antibacterial activity against isogenic efflux deleted mutant Pseudomonas aeruginosa MB9799 harbouring IMP; format: functional
# [13] = system: Escherichia coli; assay: Potentiation of imipenem induced antibacterial activity against Escherichia coli CLB30005 harbouring NDM-1 incubated for 18 to 22 hrs in presence of imipenem by spectrophotometer based analysis; format: functional; details: time 18-22 hrs
# [14] = target: Cytochrome P450 3A4 (Homo sapiens, UniProt P08684); assay: Inhibition of CYP3A4 (unknown origin); format: ADME
# [15] = Unbound fraction in rat plasma at 1 mg/kg, iv measured after 24 hrs by HPLC-MS analysis; format: ADME, organism-based
# [16] = Clearance in rat at 1 mg/kg, iv measured after 24 hrs by HPLC-MS analysis; format: ADME, organism-based; details: in vivo
# [17] = target: Cytochrome P450 2C9 (Homo sapiens, UniProt P11712); assay: Inhibition of CYP2C9 (unknown origin); format: ADME
# [18] = Cmax in rat at 1 mg/kg, iv measured after 24 hrs by HPLC-MS analysis; format: ADME, organism-based; details: in vivo
# [19] = Cmax in Wistar rat at 30 mg/kg, iv measured after 24 hrs by HPLC-MS analysis; format: ADME, organism-based; details: in vivo
# [20] = Cmax in Beagle dog at 1 mg/kg, iv measured after 24 hrs by HPLC-MS analysis; format: ADME, organism-based, Canis lupus familiaris; details: in vivo
# [21] = target: Cytochrome P450 2D6 (Homo sapiens, UniProt P10635); assay: Inhibition of CYP2D6 (unknown origin); format: ADME
# [22] = Unbound fraction in Beagle dog plasma at 1 mg/kg, iv measured after 24 hrs by HPLC-MS analysis; format: ADME, organism-based, Canis lupus familiaris
# [23] = Toxicity in Wistar rat assessed as decrease in mean blood pressure at 30 mg/kg, iv measured after 20 mins; format: organism-based; details: in vivo
# [24] = AUC in Beagle dog at 1 mg/kg, iv measured after 24 hrs by HPLC-MS analysis; format: ADME, organism-based, Canis lupus familiaris; details: in vivo
# [25] = Toxicity in Beagle dog assessed as emesis at 1 mg/kg, iv measured after 24 hrs by HPLC-MS analysis; format: organism-based, Canis lupus familiaris; details: in vivo
# [26] = target: Voltage-gated inwardly rectifying potassium channel KCNH2 (Homo sapiens, UniProt Q12809); assay: Inhibition of human ERG; format: toxicity
# [27] = target: Sodium channel protein type 5 subunit alpha (Homo sapiens, UniProt Q14524); assay: Inhibition of NaV 1.5 channel (unknown origin)
# [28] = Inhibition of GST tagged VIM-1 (unknown origin) expressed in Escherichia coli BL21 Star (DE3) competent cells using CCF2-FA as substrate incubated for 2 hrs by fluorescence based analysis
# [29] = Volume of distribution at steady state in rat at 1 mg/kg, iv measured after 24 hrs by HPLC-MS analysis; format: ADME, organism-based; details: in vivo, read-out: Vdss
# [30] = Toxicity in Wistar rat assessed as increase in histamine concentration in plasma at 30 mg/kg, iv measured after 24 hrs; format: organism-based; details: in vivo
# [31] = Toxicity in Beagle dog assessed as appearance of watery eyes at 1 mg/kg, iv measured after 24 hrs by HPLC-MS analysis; format: organism-based, Canis lupus familiaris; details: in vivo
# [32] = Inhibition of GST tagged NDM-1 (unknown origin) expressed in Escherichia coli BL21 Star (DE3) competent cells using CCF2-FA as substrate incubated for 2 hrs by fluorescence based analysis
# [33] = target: Voltage-dependent L-type calcium channel subunit alpha-1C (Homo sapiens, UniProt Q13936); assay: Inhibition of Cav1.2 channel (unknown origin)
# [34] = target: Voltage-gated potassium channel, IKs; KCNQ1(Kv7.1)/KCNE1(MinK) (Homo sapiens, UniProt P15382+P51787); assay: Inhibition of KCNQ1/KCNE1 (unknown origin); format: protein-complex assay
# [35] = system: Serratia marcescens; assay: Potentiation of imipenem induced antibacterial activity against Serratia marcescens CL5741 harbouring IMP-1 incubated for 18 to 22 hrs imipenem by spectrophotometer based analysis; format: functional; details: time 18-22 hrs
# [36] = Volume of distribution at steady state in Beagle dog at 1 mg/kg, iv measured after 24 hrs by HPLC-MS analysis; format: ADME, organism-based, Canis lupus familiaris; details: in vivo, read-out: Vdss
# [37] = MRT in rat at 5 mg/kg, iv measured after 24 hrs by HPLC-MS analysis; format: ADME, organism-based; details: in vivo
# [38] = Clearance in rat at 5 mg/kg, iv measured after 24 hrs by HPLC-MS analysis; format: ADME, organism-based; details: in vivo
# [39] = Toxicity in Wistar rat assessed as increase in histamine concentration in plasma at 100 mg/kg, iv measured after 24 hrs; format: organism-based; details: in vivo
# [40] = Cmax in Wistar rat at 100 mg/kg, iv measured after 24 hrs by HPLC-MS analysis; format: ADME, organism-based; details: in vivo
# [41] = Cmax in rat at 5 mg/kg, iv measured after 24 hrs by HPLC-MS analysis; format: ADME, organism-based; details: in vivo
# [42] = Toxicity in Wistar rat assessed as decrease in mean blood pressure at 100 mg/kg, iv measured after 20 mins; format: organism-based; details: in vivo
# [43] = Volume of distribution at steady state in rat at 5 mg/kg, iv measured after 24 hrs by HPLC-MS analysis; format: ADME, organism-based; details: in vivo, read-out: Vdss
# [44] = AUC in rat at 5 mg/kg, iv measured after 24 hrs by HPLC-MS analysis; format: ADME, organism-based; details: in vivo
# [45] = Unbound fraction in rat plasma at 5 mg/kg, iv measured after 24 hrs by HPLC-MS analysis; format: ADME, organism-based
# [46] = Toxicity in Beagle dog assessed as drug tolerability at 1 mg/kg, iv measured after 24 hrs by HPLC-MS analysis; format: organism-based, Canis lupus familiaris; details: in vivo
# [47] = Cmax in Wistar rat at 5 mg/kg, iv administered as bolus dose measured after 24 hrs by HPLC-MS analysis; format: ADME, organism-based; details: in vivo
# Chain of Voltage-gated inwardly rectifying potassium channel KCNH2 (Q12809 whole entry): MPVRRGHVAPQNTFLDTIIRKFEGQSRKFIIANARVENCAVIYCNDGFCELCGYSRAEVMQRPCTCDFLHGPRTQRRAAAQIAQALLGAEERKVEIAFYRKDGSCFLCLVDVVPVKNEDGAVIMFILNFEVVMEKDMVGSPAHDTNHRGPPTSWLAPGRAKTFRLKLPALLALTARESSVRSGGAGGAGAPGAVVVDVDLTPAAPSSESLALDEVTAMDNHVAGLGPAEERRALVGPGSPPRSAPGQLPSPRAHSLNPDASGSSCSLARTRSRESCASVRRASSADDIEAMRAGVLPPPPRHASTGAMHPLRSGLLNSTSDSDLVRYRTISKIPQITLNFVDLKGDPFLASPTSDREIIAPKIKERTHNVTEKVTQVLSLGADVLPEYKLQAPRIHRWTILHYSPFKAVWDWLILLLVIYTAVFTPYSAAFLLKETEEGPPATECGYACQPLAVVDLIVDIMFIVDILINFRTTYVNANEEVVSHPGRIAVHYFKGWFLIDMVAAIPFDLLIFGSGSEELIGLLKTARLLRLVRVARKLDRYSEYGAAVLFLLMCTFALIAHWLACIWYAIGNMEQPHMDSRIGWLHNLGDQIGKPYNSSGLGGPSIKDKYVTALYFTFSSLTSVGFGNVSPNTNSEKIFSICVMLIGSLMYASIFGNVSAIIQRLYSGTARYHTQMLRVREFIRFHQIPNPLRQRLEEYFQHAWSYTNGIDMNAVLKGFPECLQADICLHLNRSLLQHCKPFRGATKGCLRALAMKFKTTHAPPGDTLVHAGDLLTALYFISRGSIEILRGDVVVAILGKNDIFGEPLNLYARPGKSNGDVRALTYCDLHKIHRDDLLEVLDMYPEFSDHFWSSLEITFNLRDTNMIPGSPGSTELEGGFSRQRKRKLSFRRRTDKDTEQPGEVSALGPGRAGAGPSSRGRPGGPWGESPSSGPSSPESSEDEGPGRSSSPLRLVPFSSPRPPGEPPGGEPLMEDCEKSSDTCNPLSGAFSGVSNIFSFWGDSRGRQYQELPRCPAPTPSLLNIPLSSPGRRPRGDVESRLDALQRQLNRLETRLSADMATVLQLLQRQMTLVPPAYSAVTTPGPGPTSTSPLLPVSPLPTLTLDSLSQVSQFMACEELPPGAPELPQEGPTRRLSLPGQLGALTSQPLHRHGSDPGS
# Chain of Cytochrome P450 3A4 (P08684 whole entry): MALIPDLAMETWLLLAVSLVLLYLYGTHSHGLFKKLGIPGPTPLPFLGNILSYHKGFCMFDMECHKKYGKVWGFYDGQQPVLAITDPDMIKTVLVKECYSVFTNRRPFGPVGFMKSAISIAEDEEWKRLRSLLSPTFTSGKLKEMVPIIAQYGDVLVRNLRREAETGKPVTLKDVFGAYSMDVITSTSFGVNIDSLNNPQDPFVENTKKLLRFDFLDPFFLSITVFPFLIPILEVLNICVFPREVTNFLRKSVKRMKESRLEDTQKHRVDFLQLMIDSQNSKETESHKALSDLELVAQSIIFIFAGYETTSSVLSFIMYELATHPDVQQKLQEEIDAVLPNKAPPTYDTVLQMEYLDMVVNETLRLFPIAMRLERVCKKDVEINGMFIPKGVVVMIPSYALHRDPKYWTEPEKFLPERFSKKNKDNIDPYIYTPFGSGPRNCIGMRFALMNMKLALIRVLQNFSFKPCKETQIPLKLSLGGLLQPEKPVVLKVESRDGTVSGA
# Chain of Cytochrome P450 2D6 (P10635 whole entry): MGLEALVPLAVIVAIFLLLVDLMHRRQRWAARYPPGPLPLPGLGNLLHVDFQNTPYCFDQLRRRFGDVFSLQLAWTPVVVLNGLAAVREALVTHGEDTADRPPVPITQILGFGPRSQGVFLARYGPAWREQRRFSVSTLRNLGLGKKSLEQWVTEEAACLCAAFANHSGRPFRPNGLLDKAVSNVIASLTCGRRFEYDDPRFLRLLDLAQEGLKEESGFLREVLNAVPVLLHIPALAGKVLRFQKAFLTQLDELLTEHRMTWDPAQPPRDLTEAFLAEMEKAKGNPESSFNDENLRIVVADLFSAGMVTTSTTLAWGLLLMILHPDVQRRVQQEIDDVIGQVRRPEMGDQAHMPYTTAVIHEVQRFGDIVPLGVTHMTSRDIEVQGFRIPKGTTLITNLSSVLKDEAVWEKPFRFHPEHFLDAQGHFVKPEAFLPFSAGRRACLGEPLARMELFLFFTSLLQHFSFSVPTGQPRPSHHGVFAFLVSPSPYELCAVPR
# Chain of Sodium channel protein type 5 subunit alpha (Q14524 whole entry): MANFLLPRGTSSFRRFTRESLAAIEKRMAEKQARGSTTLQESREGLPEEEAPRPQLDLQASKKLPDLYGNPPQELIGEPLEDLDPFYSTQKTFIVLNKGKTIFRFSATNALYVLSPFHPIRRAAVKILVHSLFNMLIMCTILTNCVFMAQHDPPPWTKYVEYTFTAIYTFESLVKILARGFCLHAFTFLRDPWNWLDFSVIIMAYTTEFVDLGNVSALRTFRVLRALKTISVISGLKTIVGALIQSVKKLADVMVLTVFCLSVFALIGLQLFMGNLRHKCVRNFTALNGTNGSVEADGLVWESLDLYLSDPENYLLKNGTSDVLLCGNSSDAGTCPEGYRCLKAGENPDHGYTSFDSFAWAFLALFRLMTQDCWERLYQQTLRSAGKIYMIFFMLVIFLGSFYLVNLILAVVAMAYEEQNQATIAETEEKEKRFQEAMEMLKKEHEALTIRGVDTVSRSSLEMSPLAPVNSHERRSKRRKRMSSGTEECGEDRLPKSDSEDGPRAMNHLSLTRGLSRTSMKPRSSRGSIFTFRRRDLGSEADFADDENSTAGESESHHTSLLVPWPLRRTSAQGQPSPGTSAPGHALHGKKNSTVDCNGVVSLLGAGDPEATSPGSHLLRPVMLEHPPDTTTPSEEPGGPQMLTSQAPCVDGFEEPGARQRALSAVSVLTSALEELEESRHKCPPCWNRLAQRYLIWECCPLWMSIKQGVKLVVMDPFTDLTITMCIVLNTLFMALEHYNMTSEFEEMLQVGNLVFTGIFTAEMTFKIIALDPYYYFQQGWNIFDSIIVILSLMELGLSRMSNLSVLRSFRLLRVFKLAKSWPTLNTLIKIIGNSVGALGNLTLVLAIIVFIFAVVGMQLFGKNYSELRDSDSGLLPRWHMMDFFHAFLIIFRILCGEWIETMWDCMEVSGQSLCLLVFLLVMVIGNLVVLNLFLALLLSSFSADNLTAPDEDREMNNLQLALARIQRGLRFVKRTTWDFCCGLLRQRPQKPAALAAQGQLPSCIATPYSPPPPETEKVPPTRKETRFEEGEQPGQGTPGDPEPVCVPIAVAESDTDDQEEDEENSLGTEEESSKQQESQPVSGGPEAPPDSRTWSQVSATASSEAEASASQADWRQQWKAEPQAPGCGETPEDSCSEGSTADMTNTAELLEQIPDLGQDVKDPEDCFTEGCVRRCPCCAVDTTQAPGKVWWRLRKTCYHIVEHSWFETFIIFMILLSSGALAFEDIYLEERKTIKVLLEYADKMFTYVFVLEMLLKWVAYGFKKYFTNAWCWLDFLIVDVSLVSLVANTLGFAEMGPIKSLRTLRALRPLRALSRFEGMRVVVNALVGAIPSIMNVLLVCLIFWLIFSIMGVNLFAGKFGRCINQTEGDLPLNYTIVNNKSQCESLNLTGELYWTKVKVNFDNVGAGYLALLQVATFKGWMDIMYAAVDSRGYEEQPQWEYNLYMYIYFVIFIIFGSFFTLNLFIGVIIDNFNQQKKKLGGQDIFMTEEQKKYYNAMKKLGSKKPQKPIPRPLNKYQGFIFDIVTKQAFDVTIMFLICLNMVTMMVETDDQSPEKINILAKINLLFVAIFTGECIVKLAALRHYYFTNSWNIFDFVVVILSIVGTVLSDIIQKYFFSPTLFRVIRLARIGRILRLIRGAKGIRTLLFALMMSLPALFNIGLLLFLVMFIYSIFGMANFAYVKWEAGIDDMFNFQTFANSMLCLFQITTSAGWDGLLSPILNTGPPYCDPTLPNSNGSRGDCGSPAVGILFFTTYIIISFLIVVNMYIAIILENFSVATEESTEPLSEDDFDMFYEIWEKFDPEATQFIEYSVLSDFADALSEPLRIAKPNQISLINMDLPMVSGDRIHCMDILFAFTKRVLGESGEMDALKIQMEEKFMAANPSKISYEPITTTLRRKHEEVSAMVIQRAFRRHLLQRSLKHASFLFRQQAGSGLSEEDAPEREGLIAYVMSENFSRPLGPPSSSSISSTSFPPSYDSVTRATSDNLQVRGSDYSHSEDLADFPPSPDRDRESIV
# Chain of Voltage-gated potassium channel, IKs; KCNQ1(Kv7.1)/KCNE1(MinK) (P51787 whole entry): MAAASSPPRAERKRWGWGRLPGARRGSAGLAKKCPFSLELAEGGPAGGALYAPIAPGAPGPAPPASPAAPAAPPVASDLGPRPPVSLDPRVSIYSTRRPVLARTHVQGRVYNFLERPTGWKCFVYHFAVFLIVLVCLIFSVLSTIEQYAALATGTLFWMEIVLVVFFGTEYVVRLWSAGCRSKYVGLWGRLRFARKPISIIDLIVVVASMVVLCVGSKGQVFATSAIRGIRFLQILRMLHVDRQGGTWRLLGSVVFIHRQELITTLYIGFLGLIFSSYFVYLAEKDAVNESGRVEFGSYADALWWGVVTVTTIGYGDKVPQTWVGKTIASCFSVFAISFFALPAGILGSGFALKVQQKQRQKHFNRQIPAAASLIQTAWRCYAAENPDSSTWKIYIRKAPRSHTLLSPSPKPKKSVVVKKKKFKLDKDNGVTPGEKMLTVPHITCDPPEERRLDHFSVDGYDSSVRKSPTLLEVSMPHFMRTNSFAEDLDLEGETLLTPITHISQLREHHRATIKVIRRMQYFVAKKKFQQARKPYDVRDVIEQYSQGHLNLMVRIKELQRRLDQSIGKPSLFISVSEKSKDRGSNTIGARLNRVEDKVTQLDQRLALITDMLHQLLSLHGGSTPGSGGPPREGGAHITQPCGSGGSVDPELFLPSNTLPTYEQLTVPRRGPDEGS
Compound,MITC95 [1],IC50 [2],MITC95 [4],MITC95 [5],IC50 [7],IC50 [8],Ratio [12],MITC95 [13],IC50 [14],IC50 [17],Cmax [20],IC50 [21],IC50 [26],IC50 [27],IC50 [28],IC50 [32],IC50 [33],IC50 [34],MITC95 [35],other results
NS(=O)(=O)c1c(CC2CCNCC2)ccc(-c2ccc(C3CCNCC3)cc2)c1-c1nn[nH]n1,0.8 µM,0.024 µM,4.4 µM,2.3 µM,1.23 µM,> 50 µM,6,2 µM,> 50 µM,> 50 µM,15 µM,> 50 µM,> 30 µM,> 30 µM,0.005 µM,0.011 µM,> 30 µM,> 30 µM,3.9 µM,MRT [3]: 192 min; Activity [6]: Toxic; AUC at 24 h [9]: 5.5 µM·h; MRT [10]: 52.8 min; clearance [11]: 3.5 mL/min/kg; fraction unbound at 24 h [15]: 0.8; clearance [16]: 6.4 mL/min/kg; Cmax [18]: 8.6 µM; Cmax [19]: 459 µM; fraction unbound at 24 h [22]: 0.84; Activity [23]: Toxic; AUC at 24 h [24]: 10.4 µM·h; Activity [25]: Toxic; Vd [29]: 0.34 L/kg; Activity [30]: Toxic; Activity [31]: Toxic; Vd [36]: 0.45 L/kg
NS(=O)(=O)c1c(C(F)(F)F)ccc(-c2ccc(C3CCN(CC4CNC4)CC3)cc2)c1-c1nnn[nH]1,0.39 µM,0.0004 µM,4.7 µM,7.8 µM,0.062 µM,> 50 µM,12,0.6 µM,> 50 µM,> 50 µM,13.8 µM,> 50 µM,> 30 µM,> 30 µM,0.0038 µM,0.0023 µM,> 30 µM,> 30 µM,1.6 µM,MRT [37]: 42.6 min; clearance [38]: 19 mL/min/kg; Activity [39]: Toxic; Cmax [40]: 726 µM; Cmax [41]: 33.1 µM; Activity [42]: Toxic; Vd [43]: 0.73 L/kg; AUC at 24 h [44]: 9.6 µM·h; fraction unbound at 24 h [45]: 0.35; Activity [46]: Non-Toxic
NS(=O)(=O)c1c(CC2CNC2)ccc(-c2ccc(C3CCNCC3)cc2)c1-c1nn[nH]n1,0.8 µM,0.026 µM,3.1 µM,1.6 µM,,,4,0.8 µM,,,,,,,0.007 µM,0.011 µM,,,1.6 µM,Cmax [47]: 45 µM
